Laboratory results reported in the pKa sets of Baltruschat and Czodrowski (2020).

| Structure (SMILES) | pKa (basic group) | pKa (acidic group) |
| --- | --- | --- |
| [O-]c1c(Cl)c(Cl)cc(Cl)c1CN1CCOCC1 | 8.23 |  |
| O=c1ccccc(O)c1 |  | 5.4 |
| CC(=O)NCCS |  | 9.5 |
| Nc1cccc2c(O)cccc12 | 4.15 | 10.3 |
| CN(C)CCCCCCCNC(=O)/C=N/[O-] | 10.5 |  |
| OCCNC1CC[NH+](Cc2ccccc2)CC1 | 6.67 |  |
| CC(=O)c1ccc(O)c2ncccc12 | 4 | 7.75 |
| CCCCNCCCC | 11.3 |  |
| CC1=NCCCCN1 | 12.7 |  |
| C[n+]1cccc2c(O)cccc21 |  | 6.12 |
| CN(C)CCO | 9.36 |  |
| Cc1nc(N)c2cn[nH]c2n1 | 5.41 | 11.3 |
| CC/C(=N/O)C(C)=O |  | 9.38 |
| [NH3+]c1cccc(C(=O)O)c1 |  | 3.09 |
| CN(C)C(=O)OCC(=O)O |  | 3.01 |
| CN(C)CCCO | 9.76 |  |
| O=Cc1cc([N+](=O)[O-])cc(Br)c1O |  | 3.48 |
| CCN(CC)CC#N | 4.18 |  |
| CC(C)CN | 10.4 |  |
| Cc1cc2ccccc2c(C(=O)O)c1C |  | 3.33 |
| CC(=O)N1C[C@@]2(C(C)C)OC(=O)C[C@H]2[C@@H]1C(=O)O |  | 3.2 |
| COc1ccc(Cl)c2cccnc12 | 4.13 |  |

| Structure (SMILES) | pKa (basic group) | pKa (acidic group) |
| --- | --- | --- |
| Cc1nnc(C)c(C)c1C | 5.36 |  |
| O=C(O)c1cc(=O)cco1 |  | 1.5 |
| CC(C)c1nc2ccccc2[nH]1 | 6.23 |  |
| Cc1ccccc1/C(=N\CCC[NH+](C)C)c1ccccc1N | 3.82 |  |
| Cc1cnc2c(c1)c(C)cc1c(C)c(C)cnc12 | 6.07 |  |
| Nc1nncc2ccccc12 | 6.6 |  |
| CC(C)NNC1CC[NH+](C(C)C)CC1 | 6.3 |  |
| CC(=N\O)/C(CO)=N/[O-] |  | 12.1 |
| N[C@H]1CCC[C@H]1C(=O)Oc1ccc([N+](=O)[O-])cc1 | 8.36 |  |
| COC(=O)c1ccc(N)cc1 | 2.44 |  |
| O=C(O)c1cc([N+](=O)[O-])ccc1F |  | 2.73 |
| CCNc1cccc2ccccc12 | 4.19 |  |
| O=[N+]([O-])Nc1ccccc1 |  | 4.74 |
| COc1ccc(-c2cc3cnccc3[nH]2)c(OC)c1 | 8.49 |  |
| C[n+]1cccc(C(=O)Cc2ccccc2)c1 |  | 10.3 |
| Cc1nc(N)c2ncsc2n1 | 4.56 |  |
| CCN(CC)CC(=O)NC1CCc2ccccc21 (stereo not given) | 8.19 |  |
| CC[NH+](C)CCCNC(=O)/C=N/O |  | 8.72 |
| O=C(O)c1cccc2ccc(O)cc12 |  | 3.69 |
| Cc1ccc(C)c(NN=C(C#N)C#N)c1 | -0.84 | 6.75 |
| Cc1cccc(O)c1O |  | 9.28 |
| CC(=O)NS(=O)(=O)c1ccc(C)cc1 |  | 4.8 |

| Structure (SMILES) | pKa (basic group) | pKa (acidic group) |
| --- | --- | --- |
| NCCCCCCCCCC(=O)[O-] | 11 |  |
| Cc1nc2cc(C(=O)[O-])ccc2[nH]1 | 6 |  |
| COc1ccc(CCC(=O)O)cc1 |  | 4.72 |
| CS(=O)c1cccc(O)c1 (stereo not given) |  | 8.75 |
| C=C(C)[C@H]1C[NH2+][C@H](C(=O)O)[C@H]1CC(N)=O |  | 2.01 |
| c1ccc2[nH+]c(-c3ccncc3)[nH]c2c1 | 4.47 |  |
| Cc1cccc(CN)c1 | 9.37 |  |
| CC1NCCCN1 | 9.09 |  |
| O=C(O)c1cccc([N+](=O)[O-])c1C(=O)c1ccccc1 |  | 2.87 |
| Cc1nc(N)c2cnn(C)c2n1 | 5 |  |
| N=C(N)Nc1nccc(-c2csc(N)n2)n1 | 9.2 |  |
| Cc1nccnc1C | 2.24 |  |
| CCOC(=O)c1cnc(N)s1 | 3.04 |  |
| COc1ccc([N+](=O)[O-])c(CN)c1 | 8.72 |  |
| O=C([O-])C1(C(=O)O)CC1 |  | 7.31 |
| CCOc1ccc2[nH]c(C)nc2c1 | 6.22 |  |
| Nc1ccc(Cc2ccc([NH3+])cc2)cc1 | 4 |  |
| OCCN1CCNCC1 | 9.33 |  |
| Cc1ccnc(N)n1 | 4.2 |  |
| CS(=O)(=O)c1ccc(NS(=O)(=O)C(F)(F)F)cc1 |  | 2.84 |
| Oc1cnc2ccccc2[nH+]1 |  | -1.37 |
| C#CCCN | 9.23 |  |

| Structure (SMILES) | pKa (basic group) | pKa (acidic group) |
| --- | --- | --- |
| Cc1cccc(C=O)n1 | 4.55 |  |
| CCNCC(=O)Nc1c(C)cccc1C | 8.06 |  |
| C[N+](C)(C)c1cccc(O)c1 |  | 8.07 |
| Cc1cccc(C(=O)N(C)O)c1 |  | 8.52 |
| Cc1cnc(N(C)C)s1 | 6.08 |  |
| CCNc1ncnc2c1cnn2C | 4.24 |  |
| CC1=NN(c2ccccc2)C(=O)/C1=C\c1c(C)nn(-c2ccccc2)c1O |  | 13.8 |
| Cc1nc(-c2ccccc2SCc2ccccc2)[nH]c1C | 7 |  |
| CN1CC=CC1c1cccnc1 (stereo not given) | 7.04 |  |
| CC(=O)C(C)C(C)=O |  | 10.8 |
| O=C(O)c1cccccc1=O |  | 3.73 |
| CCC(C(C)=O)C(C)=O |  | 11.3 |
| NCCCC#CC#CCCC(=O)[O-] | 9.94 |  |
| NCCCCCO | 10.5 |  |
| [O-]c1cc([O-])cc(O)c1 |  | 14.1 |
| O=C(O)C(=O)Cc1ccccc1 |  | 2.68 |
| Cc1n[nH]c2c1c(=O)n(C)c(=O)n2C |  | 9.83 |
| CC(C)C(O)C(C(=O)O)c1ccc(-c2ccccc2)cc1 (stereo not given) |  | 4.13 |
| NS(=O)(=O)c1ccc(Cl)c(Cl)c1 |  | 8.94 |
| CNCCO | 9.91 |  |
